Test: Glucose tolerance test in a dog after corosolic acid administration
Assay type: in vivo
Conditions: dog (beagle), 20 mg/kg of body weight corosolic acid single administration; 75 g grape sugar oral load; tests up to 28 days after administration vs 60 days before
Protocol: (Glucose Tolerance Improving Effect of Corosolic Acid Administration in a Dog)
A dog (beagle) was used as the test animal. 20 mg/kg of body weight of purified corosolic acid extracted from banaba leaves was administered to the animal, and the glucose tolerance improvement effect was evaluated.
The glucose tolerance was evaluated by performing glucose tolerance tests according to the procedure described in (1)-(3) below. A glucose tolerance test was performed 60 days before corosolic acid administration, immediately after corosolic acid administration, and at 7 days, 14 days, 21 days and 28 days after corosolic acid administration. At time points other than immediately after corosolic acid administration, the glucose tolerance test was performed immediately after the same dose of D-sorbitol was orally administered as a placebo instead of corosolic acid. • (1) 75 g of grape sugar is administered orally to the dog. • (2) Blood is collected from the dog's vein at 0 minute, 30 minutes, 60 minutes, 90 minutes, 120 minutes, 180 minutes and 240 minutes after grape sugar administration, and the blood glucose level of the collected blood is measured using GLUTEST SENSOR (trade name, manufactured by SANWA KAKAGU KENKYUSHO CO.,LTD). • (3) The total of 7 blood glucose levels measured above in (2) is represented by ΣBG [mg/dl].

## C[C@H]1[C@H](C)CC[C@]2(C(=O)O)CC[C@]3(C)C(=CC[C@@H]4[C@@]5(C)C[C@@H](O)[C@H](O)C(C)(C)[C@@H]5CC[C@]43C)[C@H]12 [corosolic acid]
  ΣBG (total of 7 blood glucose levels in glucose tolerance test): lower values for 28 days after corosolic acid adminisration than before corosolic acid adminisration

Reference: patent US20050267055A1, “Agent for improvement of glucose tolerance” (USE-TECHNO CORPORATION, priority 2003, published 2005)
